From patent publication US10668051B2, “Modulators of calcium release-activated calcium channel” (Rhizen Pharmaceuticals SA, priority 2009, dated 2020)
Where a name gives a salt, the structure may show the parent alone.

What follows are molecules tested against CRAC channels (Homo sapiens (Human), UniProt Q96D31) (assay: In-vitro CRAC channel inhibition assay in Jurkat cells (thapsigargin-induced calcium influx)).
CRAC channels, sequence (Q96D31 whole entry): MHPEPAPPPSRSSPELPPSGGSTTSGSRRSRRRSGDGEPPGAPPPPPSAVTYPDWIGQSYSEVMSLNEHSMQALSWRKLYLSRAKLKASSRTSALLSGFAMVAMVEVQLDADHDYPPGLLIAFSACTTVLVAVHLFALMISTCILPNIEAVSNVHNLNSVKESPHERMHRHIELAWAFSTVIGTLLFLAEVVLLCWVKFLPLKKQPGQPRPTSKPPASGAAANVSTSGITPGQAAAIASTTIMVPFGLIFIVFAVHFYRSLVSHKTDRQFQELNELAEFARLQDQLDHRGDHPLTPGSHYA
Format: cell-based
Protocol: 1A. In-Vitro CRAC Channel Inhibition Assay in Jurkat Cells
Plate is incubated at 37° C./5% CO2 for 30 min followed by further 15 min incubation at room temperature. Test compounds (DMSO stocks diluted in Ca^2+ and Mg^2+ free Hanks buffer) at desired concentrations were added to the wells and incubated for 15 min. Thapsigargin (1 μM final concentration) was added to the wells and incubated for 15 min to inhibit the Sarco-endoplasmic reticulum Ca^2+ ATPase pump thereby depleting endoplasmic calcium and raising cytosolic calcium concentrations. Store-operated calcium entry was initiated by adding extracellular Ca^2+ to a final concentration of 1.8 mM. Fluorescence was monitored over 5 min on a plate reader (BMG Labtech., Germany) with excitation at 485 nm and; an emission wavelength at 520 nm. Data were analyzed using GraphPad Prism. IC50 for each compound was determined based on the percent inhibition of thapsigargin-induced calcium influx into cells.
With `O=C(Nc1cccc(F)c1F)c1ccc(-n2nc(C(F)(F)F)cc2C2CC2)nc1` [Example 121, 6-[5-cyclopropyl-3-(trifluoromethyl)-1H-pyrazol-1-yl]-N-(2,3-difluorophenyl)nicotinamide] the inhibition at 1 µM was 23.1%.
For `O=C(Cc1cccnc1)Nc1ccc(-n2nc(C(F)(F)F)cc2C2CC2)cc1` [Example 72, N-{4-[5-cyclopropyl-3-(trifluoromethyl)-1H-pyrazol-1-yl]phenyl}-2-(pyridin-3-yl)acetamide hydrochloride], the inhibition at 1 µM was 100%.
`O=C(Nc1ccc(-n2nc(C3CC3)cc2C2CC2)cc1)c1cccnc1` [Example 14, N-[4-(3,5-dicyclopropyl-1H-pyrazol-1-yl)phenyl]nicotinamide hydrochloride] was tested, and the inhibition at 1 µM was 25.9%.
Molecule `Cc1ccccc1C(=O)Nc1ccc(-n2nc(C(F)(F)F)cc2C2CC2)cc1` [Example 60, N-{4-[5-cyclopropyl-3-(trifluoromethyl)-1H-pyrazol-1-yl]phenyl}-2-methylbenzamide] has an inhibition at 1 µM of 83.7%.
Work on `O=C(CN1CCNCC1)Nc1ccc(-n2nc(C3CC3)cc2C2CC2)cc1` [Example 25, N-[4-(3,5-dicyclopropyl-1H-pyrazol-1-yl)phenyl]-2-(piperazin-1-yl)acetamide hydrochloride] yielded an inhibition at 1 µM of 29%.
In the case of `Cc1oncc1C(=O)Nc1ccc(-n2nc(C(F)(F)F)cc2C2CC2)c(F)c1` [Example 84, N-{4-[5-cyclopropyl-3-(trifluoromethyl)-1H-pyrazol-1-yl]-3-fluorophenyl}-5-methylisoxazole-4-carboxamide], the inhibition at 1 µM is reported as 100%.
Work on `Cc1noc(C)c1C(=O)Nc1ccc(-n2nc(C3CC3)cc2C2CC2)cc1` [Example 5, N-[4-(3,5-dicyclopropyl-1H-pyrazol-1-yl)phenyl]-3,5-dimethylisoxazole-4-carboxamide] yielded an inhibition at 1 µM of 48.5%.
For `CS(=O)(=O)c1cccc(C(=O)Nc2ccc(-n3nc(C(F)(F)F)cc3C3CC3)cc2)c1` [Example 63, N-{4-[5-cyclopropyl-3-(trifluoromethyl)-1H-pyrazol-1-yl]phenyl}-3-(methylsulfonyl)benzamide], the inhibition at 1 µM was 39.1%.
Molecule `Cc1nnsc1C(=O)Nc1ccc(-n2nc(C3CC3)c(Cl)c2C2CC2)c(F)c1` [Example 37, N-[4-(4-chloro-3,5-dicyclopropyl-1H-pyrazol-1-yl)-3-fluorophenyl]-4-methyl-1,2,3-thiadiazole-5-carboxamide] has an inhibition at 1 µM of 82.2%.
Work on `O=C(Nc1ccc(-n2nc(C3CC3)cc2C2CC2)nc1)c1ccccc1F` [Example 43, N-[6-(3,5-dicyclopropyl-1H-pyrazol-1-yl)pyridin-3-yl]-2-fluorobenzamide] yielded an inhibition at 1 µM of 9.34%.
With `Cc1ncsc1C(=O)Nc1ccc(-n2nc(C(F)(F)F)cc2C(F)F)cc1` [Example 126, N-{4-[5-(difluoromethyl)-3-(trifluoromethyl)-1H-pyrazol-1-yl]phenyl}-4-methyl thiazole-5-carboxamide] the inhibition at 1 µM was 100%.
Work on `O=C(Nc1ccc(-n2nc(C(F)(F)F)cc2C2CC2)nc1)c1ccccc1Cl` [Example 105, 2-chloro-N-{6-[5-cyclopropyl-3-(trifluoromethyl)-1H-pyrazol-1-yl]pyridin-3-yl}benzamide hydrochloride] yielded an inhibition at 1 µM of 71.2%.
`Cc1noc(C)c1C(=O)Nc1ccc(-n2nc(C(F)(F)F)cc2C2CC2)nc1` [Example 103, N-{6-[5-cyclopropyl-3-(trifluoromethyl)-1H-pyrazol-1-yl]pyridin-3-yl}-3,5-dimethylisoxazole-4-carboxamide] showed an inhibition at 1 µM of 19.4%.
With `O=C(Nc1ccc(-n2nc(C3CC3)cc2C2CC2)c(F)c1)c1c(F)cccc1F` [Example 33, N-[4-(3,5-dicyclopropyl-1H-pyrazol-1-yl)-3-fluorophenyl]-2,6-difluorobenzamide] the inhibition at 1 µM was 93.1%.
`O=C(Nc1ccc(-n2nc(C(F)(F)F)cc2C2CC2)cc1)c1cccc(F)c1F` [Example 61, N-{4-[5-cyclopropyl-3-(trifluoromethyl)-1H-pyrazol-1-yl]phenyl}-2,3-difluorobenzamide] gave an inhibition at 1 µM of 100%.
Work on `O=C(CN1CCOCC1)Nc1ccc(-n2nc(C3CC3)cc2C2CC2)cc1` [Example 26, N-[4-(3,5-dicyclopropyl-1H-pyrazol-1-yl)phenyl]-2-morpholinoacetamide] yielded an inhibition at 1 µM of 43%.
`O=C(Cc1ccccn1)Nc1ccc(-n2nc(C(F)(F)F)cc2C2CC2)cc1` [Example 71, N-{4-[5-cyclopropyl-3-(trifluoromethyl)-1H-pyrazol-1-yl]phenyl}-2-(pyridin-2-yl)acetamide hydrochloride] gave an inhibition at 1 µM of 100%.
`Cc1noc(C)c1C(=O)Nc1ccc(-n2nc(C3CC3)cc2C2CC2)nc1` [Example 41, N-[6-(3,5-dicyclopropyl-1H-pyrazol-1-yl)pyridin-3-yl]-3,5-dimethylisoxazole-4-carboxamide] gave an inhibition at 1 µM of 0%.
Work on `O=C(Nc1c(F)cccc1F)c1ccc(-n2nc(C(F)(F)F)cc2C2CC2)cc1` [Example 79, 4-[5-cyclopropyl-3-(trifluororomethyl)-1H-pyrazol-1-yl]-N-(2,6-difluorophenyl) benzamide] yielded an inhibition at 1 µM of 100%.
In the case of `O=C(Nc1ccc(-n2nc(C(F)(F)F)cc2C2CC2)cc1)c1c(F)cccc1F` [Example 62, N-{4-[5-cyclopropyl-3-(trifluoromethyl)-1H-pyrazol-1-yl]phenyl}-2,6-difluorobenzamide], the inhibition at 1 µM is reported as 100%.
`CS(=O)(=O)c1cccc(C(=O)Nc2ccc(-n3nc(C4CC4)cc3C3CC3)cc2)c1` [Example 10] showed an inhibition at 1 µM of 49.5%.
`O=C(Nc1ccc(-n2nc(C3CC3)cc2C2CC2)cc1)c1c(Cl)cncc1Cl` [Example 17, 3,5-dichloro-N-(4-(3,5-dicyclopropyl-1H-pyrazol-1-yl)phenyl)isonicotinamide] was tested, and the inhibition at 1 µM was 87.5%.
Work on `O=C(Nc1ccc(-n2nc(C3CC3)cc2C2CC2)cc1)c1ccncc1` [Example 15, N-[4-(3,5-dicyclopropyl-1H-pyrazol-1-yl)phenyl]isonicotinamide hydrochloride] yielded an inhibition at 1 µM of 94%.
For `Cc1noc(C)c1C(=O)Nc1ccc(-n2nc(C(F)(F)F)cc2C2CC2)c(F)c1` [Example 85, N-{4-[5-cyclopropyl-3-(trifluoromethyl)-1H-pyrazol-1-yl]-3-nuorophenyl}-3,5-dimethylisoxazole-4-carboxamide], the inhibition at 1 µM was 76.6%.
With `O=C(Nc1ccc(-n2nc(C3CC3)cc2C2CC2)c(F)c1)c1cccc(F)c1F` [Example 32, N-[4-(3,5-dicyclopropyl-1H-pyrazol-1-yl)-3-fluorophenyl]-2,3-difluorobenzamide] the inhibition at 1 µM was 63.6%.
Work on `O=C(Cc1ccccc1)Nc1ccc(-n2nc(C3CC3)cc2C2CC2)cc1` [Example 19, N-[4-(3,5-dicyclopropyl-1H-pyrazol-1-yl)phenyl]-2-phenylacetamide] yielded an inhibition at 1 µM of 73.5%.
For `Cc1ncsc1NC(=O)Nc1ccc(-n2nc(C(F)(F)F)cc2C2CC2)cc1` [Example 76, 1-{4-[5-cyclopropyl-3-(trifluoromethyl)-1H-pyrazol-1-yl]phenyl}-3-(4-methylthiazol-5-yl)urea], the inhibition at 1 µM was 92.3%.
With `O=C(Nc1ccc(-n2nc(C3CC3)cc2C2CC2)c(F)c1)c1cccnc1` [Example 34, N-[4-(3,5-dicyclopropyl-1H-pyrazol-1-yl)-3-fluorophenyl]nicotinamide hydrochloride] the inhibition at 1 µM was 21.5%.
Work on `O=S(=O)(Nc1ccc(-n2nc(C3CC3)cc2C2CC2)cc1)c1ccccc1` [Example 27, N-[4-(3,5-dicyclopropyl-1H-pyrazol-1-yl)phenyl]benzenesulfonamide] yielded an inhibition at 1 µM of 91.2%.
